Experimental data from patent US6609014B1, “Use of PDT to inhibit intimal hyperplasia” (QLT Inc., priority 1999, dated 2003).
Values joined by “and” are separate entries in the source; they are usually repeats but may differ in a detail not shown here. Equal entries are not always repeated.

Columns and labels:
Type in all cases: in vivo, Domestic swine
[1] = system: intimal hyperplasia in the vein of AV fistulae between the carotid artery and the jugular vein; assay: Three month efficacy study: PDT of bilateral AV fistulae, morphometric analysis; design: key to PDT-treated fistula thrombosed (T): T = thrombosed
Experimental: A porous balloon catheter was introduced into the lumen of veins to deliver either 2 mL of BPD-MA (diluted in 5% dextrose in water) or 5% dextrose in water (control), at a delivery pressure of 2 mm Hg. Two minutes later, the photosensitizer (or dextrose) was rinsed out with heparinized saline before light exposure.
The adventitia of the vein was exposed to the operating room (OR) lamp light for 40 minutes (a combination of incandescent bulbs and fluorescence tubes—approximately 1 J/cm^2).
Measurements and observations were made by morphometric analysis of cross-sections of fistulae stained with Verhoeff's elastic to assess the integrity of the vessel wall and also clearly demarcate the internal elastic lamina (IEL) for the measurement of IH. Areas within the lumen and those circumscribed by the internal elastic lamina (IEL) and the external elastic lamina (EEL) were measured directly using the Optimas (Optimas Corporation, Bothell, Wash., USA) program. The areas of the intima and the media were calculated by subtraction: intimal area equals the […], and medial area equals EEL area minus IEL area.
A three month study was conducted with bilateral end-to side AV fistulae between the carotid artery and the jugular vein created in 11 pigs. One fistula was treated with 0.15 mg/2 mL BPD-MA and 1 J/cm^2 OR lamp light delivered over 40 min; the control fistula received 5% Dextrose and light. Animals were sacrificed 3 months after PDT. The fistulae were surgically excised and processed for histology and morphometric analysis as described previously. Only 27% of the PDT treated and 45% of the control fistulae were patent by 3 months. Occlusion appeared to be due to both early thrombosis, possibly related to the surgical procedure or late thrombosis due to extensive IH and lumen narrowing.
There were three animals for which patent PDT-treated and control fistulae could be recovered. The percent of the lumen compromised by IH (% LCIH=[…]) was calculated for the first two complete blocks from the tip of the anastamosis for these samples.

[2] = system: PCNA positive (proliferating) cells in the vein; assay: PCNA immunocytochemistry of AV fistula veins 48 hours after PDT
Experimental: In Example 4, immunohistochemistry was use to study the early phase of cell proliferation. Immunocytochemistry for the proliferating cell nuclear antigen (PCNA, mouse antibody clone PC10, Sigma) was used to assess cell proliferation in the vein. PCNA positive cells were counted using the Optimas image analysis program.
(§1) For the purposes of determining the early cellular effects of PDT on the vein, bilateral AV fistulae were created in six pigs and treated sides were given 0.15 mg BPD-MA (0.15 mg/2 mL) and 40 minutes OR light. After 48 hours these pigs were sacrificed and the fistulae were recovered and processed for histological evaluation. This is not enough time for IH to have developed, but the cellular activation which leads to IH may be detectable. […] Immunocytochemistry for the proliferating cell nuclear antigen (PCNA) was used to assess cell proliferation in the tissue (Table 3).

[3] = system: endothelial lining of the vein lumen; assay: von Willebrand factor immunostaining of AV fistula veins 48 hours after PDT; conditions: low-dose PDT
Text: In Example 4, the cell content of the vein wall was also examined using immunohistochemical techniques to detect SMCs (mouse anti-human ax-smooth muscle actin, clone 1A4 (Dako, Mississauga, Canada)), macrophages (mouse monoclonal anti-human monocyte/macrophage, clone MAC 387 (Serotec Inc.), T cells (Rabbit anti-human CD3 with Neo marker), and endothelial cells (rabbit polyclonal anti-human von Willebrand Factor (Dako, Mississauga, Canada)). SMCs were counted using the Optimas image analysis program and macrophages were counted manually using Image Pro Plus 3 (Media Cybernetics, Silver Spring, Md., USA).
as §1
Immunocytochemical staining for von Willebrand factor was performed to characterize the effects of PDT on the endothelial lining of the vein lumen. […]

[4] = 0.15 mg VERTEPORFIN/2 mL, 1 J/cm^2 OR lamp light over 40 min, three months, individual pigs
[5] = 0.15 mg VERTEPORFIN, three months, group mean
[6] = 0.15 mg VERTEPORFIN, three months, group mean (n=3)
[7] = 0.15 mg VERTEPORFIN, three months, individual pigs
[8] = 0.15 mg VERTEPORFIN, three months, individual pigs (FIG. 9: percent medial hyperplasia)
[9] = 0.15 mg/2 mL BPD-MA, three months
[10] = 0.15 mg BPD-MA (0.15 mg/2 mL), 40 minutes OR light, six pigs

benzoporphyrin derivative monoacid ring A [BPD-MA]
Percent Lumen Compromised by Intimal Hyperplasia, PDT, Block #2 [1, 4]: 2% and 32.3% and 41.7% and 13.7% and 46.4% | Percent Lumen Compromised by Intimal Hyperplasia, PDT, PDT (Block#1) [1, 4]: 3.1% and 30.2% and 17.3% | Medial Hyperplasia, PDT, Block#1, Mean [1, 5]: 21.3 | Medial Hyperplasia, PDT, Block#2, Mean [1, 5]: 14.9 | Percent Lumen Compromised by Intimal Hyperplasia, PDT, Block #1, Mean [1, 5]: 16.9% | Percent Lumen Compromised by Intimal Hyperplasia, PDT, Block #2, Mean [1, 5]: 26.9% | Percent Lumen Compromised by Intimal Hyperplasia, Control-PDT, Block #1, Mean [1, 6]: 16.7% | Percent Lumen Compromised by Intimal Hyperplasia, Control-PDT, Block #2, Mean [1, 6]: 8.5% | PDT-treated fistula thrombosed (T) [1, 7]: T | Percent Lumen Compromised by Intimal Hyperplasia, Control-PDT, Block #1 [1, 7]: −0.4% and 18.8% and 31.8% | Percent Lumen Compromised by Intimal Hyperplasia, Control-PDT, Block #2 [1, 7]: 17.6% and 14.5% and −6.6% | Medial Hyperplasia, PDT, Block#1 [1, 8]: 8.4 and 38.1 and 17.3 | Medial Hyperplasia, PDT, Block#2 [1, 8]: 8.1 and 27.5 and 9.2 | PDT treated fistulae patent by 3 months ([1]; 0.15 mg/2 mL BPD-MA, 1 J/cm^2 OR lamp light over 40 min, 11 pigs, control 45%): 27% | Relative reduction of intimal hyperplasia, block 1 [1, 9]: 46% | Relative reduction of intimal hyperplasia, block 2 [1, 9]: 27% | PDT effect on the media of the veins ([1]; after 3 months): little PDT effect | IH in block of tissue immediately adjacent to the anastamosis ([1]; three animals with both fistulae patent, three months): marked decrease in IH | MEAN PERCENT OF PCNA POSITIVE CELLS PER TISSUE AREA, PDT, BLOCK 1 [2, 10]: 0.33% | MEAN PERCENT OF PCNA POSITIVE CELLS PER TISSUE AREA, PDT, BLOCK 2 [2, 10]: 0.74% | MEAN PERCENT OF PCNA POSITIVE CELLS PER TISSUE AREA, PDT, BLOCK 3 [2, 10]: 0.65% | Reduction of number of proliferating cells at the anastomosis of the vein ([2]; low-dose PDT (0.15 mg BPD-MA)): 2 fold | Damage to endothelial cell lining of treated veins [3]: did not appear to damage the endothelial cell lining
